Reference: patent publication US20130165625A1, “PEPTIDES INCORPORATING 3-AMINOADAMANTANE CARBOXYLIC ACIDS ENHANCE SYNAPTIC PLASTICITY AND ACT AS NEUROGENIC AGENTS” (JUSTUS-LIEBIG-UNIVERSITAT GIESSEN, priority 2010, published 2013)
Residues, ends and D or L forms follow the SMILES beside them.

Experiments:
mice [1] = test: Open field familiarization session (locomotor/exploratory activity and anxiety); assay type: in vivo; details: for anxiety level of mice: FIG. 1B, time in centre of arena, first 5 minutes, s.c. pellets 25 nmol/day; for effect on exploratory activity: FIG. 1C, open field, s.c. pellets 25 nmol/day for 35 days
Procedure: (§1) All in vivo studies for characterization of peptides (stereology and behavioral analysis) were performed on 8-10-month-old female retired breeders of C57BI6 background. Animals were acclimatized for at least 3 weeks to exclude occasional pregnant mice from the studies. Mice were group-housed (3 animals per cage) with a 12:12 hours light/dark cycle and with free access to food and water. All procedures were conducted in accordance with approved protocols from our institutional Animal Welfare Committee. For the peptide treatment, mice (8 animals/group) received subcutaneous implants of long term continuous release depot pellets containing Peptide021 or Peptide022 at 25 nmol/day for 35 days of continuous dosing (Innovative Research of America, Sarasota, Fla.). For the control group (8 animals), pellets consisted of the carrier polymer only. Mice were anesthetized with 2.5% Avertin (0.38 ml for a 25 g animal). Under sterile conditions, pellets were implanted subcutaneously along the anterolateral aspect of the right shoulder with a precision trochar (Innovative Research of America, Sarasota, Fla.). After recovery of anesthesia, animals were transferred to the animal colony. […] To investigate neurogenesis, BrdU (Sigma, St. Louis, Mo.) was given as two daily i.p. injections (100 mg/kg/dose) for five days starting on day 2 of peptides treatment.
In the one-trial object recognition task, animals are exposed to two different objects which they have to identify as novel or familiar based on the memory of an earlier experience with one of the two objects they encountered in the same open field. The familiar object is explored shorter than the novel encountered one because the representation of the former is still available in memory. The one-trial object recognition task tests some aspects of episodic memory but is limited to memory of an object (what), the location of an object (where), and the context in which is was encountered (which). However, the temporal dimension of the episode remains inaccessible to the experimentator, and because of this reason this task in animals is considered a test of short term memory (Ennaceur, 2010). The test used was an adaptation of the procedure previously described by Sargolini and collaborators (2003). The testing apparatus was a classic open field (i.e. a PVC square arena, 50×50 cm, with walls 40 cm high). The open field was placed in a part of the room separated from the experimentator with a black opaque curtain. The open field was surmounted by a video camera connected to a computer. Three objects were employed in this task. The general procedure consisted of three different phases: a familiarization phase (one session of 20 min), a sample phase, and a test phase. […] Object discrimination (OD) during the test phase was evaluated as […]

synapsin I = test: Expression of synapsin I in DG (immunohistochemistry, mean optical density); assay type: in vivo, mice; details: FIG. 3B; p<0.001; s.c. pellets 25 nmol/day
Procedure: (§2) All in vivo studies for characterization of peptides (stereology and behavioral analysis) were performed on 8-10-month-old female retired breeders of C57BI6 background. Animals were acclimatized for at least 3 weeks to exclude occasional pregnant mice from the studies. Mice were group-housed (3 animals per cage) with a 12:12 hours light/dark cycle and with free access to food and water. All procedures were conducted in accordance with approved protocols from our institutional Animal Welfare Committee. […]
(§3) At the end of the behavioral experiment, animals were anesthetized with an overdose of sodium pentobarbital (50 mg/kg) and transcardially perfused with 0.1 M phosphate buffered saline (PBS). […] Neurogenesis in the dentate gyrus was evaluated by counting the number of BrdU-positive and BrdU/NeuN-double-positive cells in the dentate gyrus (DG). The number of positive cells was determined in every fifth section in a series of 40 μm sagittal sections throughout the DG using unbiased sterology (West et al., 1991). All BrdU-positive cells in the subgranular zone (SGZ) and granule cell layer (GCL) were counted using a fluorescent microscope (Nikon Eclipse 90i, Nikon Corporation, Japan). Double labeled cells were assessed by a confocal imaging system (D-Eclipse C1, Nikon Corporation). […] For each brain, at least 100 cells were counted based on coefficient of error determinations. […]

[2] = system: LIF-induced STAT3 phosphorylation at Tyr705; test: Analysis of STAT3 phosphorylation in HepG2 cells; assay type: cell-based, human; details: FIG. 4, different peptide concentrations with 0.25 nM LIF for 15 min, Western blot
Procedure: To investigate the molecular mechanism of action of Peptide021 in LIF signaling, HepG2 human hepatoma cell (ATCC, Manassas, Va.) at 80% confluence were treated with different concentrations of Peptide021 and with 0.25 nM LIF (Chemicon International Inc., Temecula, Calif.) for 15 min. The cells were lysed and subjected to Western blots developed with antibodies anti-phospho-Tyr 705 STAT3 and anti-STAT3 (Cell signaling Technology, Danvers, Mass.).
HepG2 cells were treated with different concentrations of Peptide 021 together with 0.25 nM LIF for 15 min, and then the STAT3 phosphorylation at Tyr705 (pY-STAT3) was determined by Western blots. The pY-STAT3 value was normalized to total STAT3 expression. Data are presented as percentages of the value from cells treated with 0.25 nM LIF alone (100%). *p<0.01.

mice [3] = test: One-trial object recognition test; assay type: in vivo; details: FIG. 1E-F; p<0.05, Student t-test; s.c. pellets 25 nmol/day
Procedure: All in vivo studies for characterization of peptides (stereology and behavioral analysis) were performed on 8-10-month-old female retired breeders of C57BI6 background. Animals were acclimatized for at least 3 weeks to exclude occasional pregnant mice from the studies. Mice were group-housed (3 animals per cage) with a 12:12 hours light/dark cycle and with free access to food and water. All procedures were conducted in accordance with approved protocols from our institutional Animal Welfare Committee. For the peptide treatment, mice (8 animals/group) received subcutaneous implants of long term continuous release depot pellets containing Peptide021 or Peptide022 at 25 nmol/day for 35 days of continuous dosing (Innovative Research of America, Sarasota, Fla.). For the control group (8 animals), pellets consisted of the carrier polymer only. Mice were anesthetized with 2.5% Avertin (0.38 ml for a 25 g animal). […]
In the one-trial object recognition task, animals are exposed to two different objects which they have to identify as novel or familiar based on the memory of an earlier experience with one of the two objects they encountered in the same open field. […] Object discrimination (OD) during the test phase was evaluated as […]

mice [4] = test: Spatial reference memory task in the water maze; assay type: in vivo; details: for effect on swim speed: FIG. 1D, water maze, s.c. pellets 25 nmol/day for 35 days; for performance in the learning of spatial memory task in water maze: FIG. 1G, p<0.001, two-way ANOVA, s.c. pellets 25 nmol/day
Procedure: as §1
Spatial reference learning and memory were evaluated in the water maze using a procedure adapted from that previously described by Morris et al. (1982). The test required that mice used a spatial navigational strategy based on a spatial representation of the environment to find a fixed submerged escape platform. The procedure was performed in a 180 cm diameter circular tank. The pool was filled with water (21±1)° C. made opaque by adding white non-toxic paint. Acquisition started with the escape platform (15 cm diameter submerged 1 cm below water surface) in the Northwest quadrant and each animal was given 90 s to find the platform. […] At the end of each trial, the mouse was left on the platform for 20 s, then dried and returned to its home cage until the next trial. Five such acquisition trials were given on each day for four consecutive days. A test for retention, or probe trial (PT), was given 24 hours later. During the probe trial the mouse was allowed to swim in the tank without the escape platform for 60 seconds. This was followed by second and third probe trials 15 and 30 days after the first probe trial. The measures of learning were the time and distance covered to reach the escape platform. For the probe trial, the tank was divided into four imaginary quadrants and a small zone where the escape platform had been. The measures of retention were calculated index as the ratio of time spent or distance covered in target quadrant over them in the three other quadrants. Mouse behavior in the water maze was monitored by a Samsung Digital Camera (SDC 4304) mounted to the ceiling and tracked and timed by a SMART (Pan Lab/San Diego Instruments) version 2.0.14 software. Immunohistochemistry

synaptophysin = test: Expression of synaptophysin in DG (immunohistochemistry, mean optical density); assay type: in vivo, mice; details: FIG. 3A; p<0.001; s.c. pellets 25 nmol/day
Procedure: as §2, §3

[5] = General examination: body weight and physical state during peptide treatment; assay type: in vivo, mice; details: s.c. depot pellets 25 nmol/day for 35 days; for effect on body weight: FIG. 1A, female C57BI6 mice
Procedure: as §1
The physical state and condition of animals were carefully monitored throughout the treatment by evaluating grooming, physical state and clasping reflex. Body weight was also recorded.

[6] = system: BrdU-positive and BrdU/NeuN-double-positive cells in the dentate gyrus; test: Neurogenesis in the dentate gyrus (BrdU / NeuN immunohistochemistry, unbiased stereology); assay type: in vivo, mice; details: p<0.05, s.c. pellets 25 nmol/day
Procedure: as §1
At the end of the behavioral experiment, animals were anesthetized with an overdose of sodium pentobarbital (50 mg/kg) and transcardially perfused with 0.1 M phosphate buffered saline (PBS). After perfusion, the brains were removed from the skull, the left hemisphere was immediately frozen for future biochemical analysis and the right hemisphere was immersion fixed in 4% paraformaldehyde in 0.1 M PBS for at least 24 hours at room temperature. Tissues were equilibrated and stored in 30% sucrose solution at 4° C. until sectioning. The brains were sectioned sagittaly on a freezing sliding microtome at 40 μm through the entire hippocampus and the sections were stored in glycol anti-freeze solution (Ethylene glycol, glycerol and 0.1 M PBS in 3:3:4 ratio) at −20° C. until further processing. For double labeling of BrdU and NeuN, brain sections were pretreated with 2 M HCl at 37° C. for 30 min and neutralized with 0.1 M borate buffer (pH 8.5) for 10 minutes. Tissue sections were incubated first for 30 min with blocking buffer (4% normal goat serum +0.1% Tween-20 in PBS) and then overnight at 4° C. in the presence of BrdU (Millipore Corporation, Billerica, Mass.) and NeuN (Millipore Corporation) antibodies diluted 1:400 and 1:100, respectively. […] Neurogenesis in the dentate gyrus was evaluated by counting the number of BrdU-positive and BrdU/NeuN-double-positive cells in the dentate gyrus (DG). The number of positive cells was determined in every fifth section in a series of 40 μm sagittal sections throughout the DG using unbiased sterology (West et al., 1991). All BrdU-positive cells in the subgranular zone (SGZ) and granule cell layer (GCL) were counted using a fluorescent microscope (Nikon Eclipse 90i, Nikon Corporation, Japan). Double labeled cells were assessed by a confocal imaging system (D-Eclipse C1, Nikon Corporation). […] For each brain, at least 100 cells were counted based on coefficient of error determinations. […]

| Structure (SMILES) | anxiety level of mice (mice [1]) | effect on exploratory activity (mice [1]) | expression of synapsin I in the DG (synapsin I) | LIF-induced STAT3 phosphorylation (pY-STAT3 normalized to total STAT3) [2] | ability to discriminate a new object versus a familiar object (mice [3]) | effect on swim speed (mice [4]) | performance in the learning of spatial memory task in water maze (mice [4]) | effect in second probe trial (PT2) (mice [4]; FIG. 1H, after 15 days of the end of treatment) | effect in third probe trial (PT3) (mice [4]; FIG. 1H, after 30 days of the end of treatment) | performances in the first probe trial (mice [4]; FIG. 1H, probe trial 24 hours after acquisition, p<0.05) | expression of synaptophysin in the DG (synaptophysin) | effect on body weight [5] | complications associated with the implantation and treatment [5] | numbers of BrdU positive cells in the GCL ([6]; FIG. 2B) | numbers of BrdU positive cells in the SGZ ([6]; FIG. 2B) | numbers of BrdU positive cells in the total DG ([6]; FIG. 2B) | number of BrdU/NeuN positive cells in the GCL ([6]; FIG. 2C) | number of BrdU/NeuN positive cells in the total DG ([6]; FIG. 2C) |
| --- | --- | --- | --- | --- | --- | --- | --- | --- | --- | --- | --- | --- | --- | --- | --- | --- | --- | --- |
| CC(=O)N[C@@H](CC(=O)O)C(=O)NCC(=O)NCC(=O)N[C@@H](CC(C)C)C(=O)N[C@]12CC3CC(C1)C[C@@](C(N)=O)(C3)C2 [Peptide 021, Ac-Asp-Gly-Gly-Leu-^AGly-NH2] (HELM PEPTIDE1{[ac].D.G.G.L.[NC(=O)[C@]12CC3CC(C[C@](N[*:1])(C3)C1)C2]}$$$$V2.0) | reduced | did not induce any effect | significantly promoted | Inhibition | significantly improved | did not induce any effect | increased performance | no longer effect | no longer effect | improved performances | significantly promoted | did not induce any effect | No complications | significantly increased | significantly increased | significantly increased | significantly increased | significantly increased |
| CC(C)C[C@H](NC(=O)CNC(=O)CNC(=O)[C@H](CC(=O)O)NC(=O)C12CC3CC(CC(C3)C1)C2)C(=O)NC12CC3CC(C1)CC(C(N)=O)(C3)C2 [Peptide 022, 1-AdCO-DGGL^AG-NH2] (HELM PEPTIDE1{[O=C(C12CC3CC(CC(C3)C1)C2)[*:2]].D.G.G.L.[NC(=O)C12CC3CC(CC(N[*:1])(C3)C1)C2]}$$$$V2.0) | reduced | did not induce any effect | – | – | – | did not induce any effect | increased performance | – | – | – | – | did not induce any effect | No complications | – | – | – | – | – |
